{
  "source": "patent US20070259967A1",
  "about": "“Methods of Diagnosis” (priority 2004, published 2007)",
  "origin": "cited, not measured here",
  "key": {"[1]": {"settings": "amphetamine administered to children with ADHD; Zametkin et al. 1984"}, "Platelet MAO-B": {"target": "T1, Platelet MAO-B (Homo sapiens, UniProt P27338)", "T1 construct": "the platelet pellet was resuspended with saline to obtain a concentration of 107 platelets/ml and then sonicated for 10 seconds; from tissue; host or cells: blood platelets (platelet rich plasma from fasting venous blood)", "T1 sequence (P27338 1-520)": "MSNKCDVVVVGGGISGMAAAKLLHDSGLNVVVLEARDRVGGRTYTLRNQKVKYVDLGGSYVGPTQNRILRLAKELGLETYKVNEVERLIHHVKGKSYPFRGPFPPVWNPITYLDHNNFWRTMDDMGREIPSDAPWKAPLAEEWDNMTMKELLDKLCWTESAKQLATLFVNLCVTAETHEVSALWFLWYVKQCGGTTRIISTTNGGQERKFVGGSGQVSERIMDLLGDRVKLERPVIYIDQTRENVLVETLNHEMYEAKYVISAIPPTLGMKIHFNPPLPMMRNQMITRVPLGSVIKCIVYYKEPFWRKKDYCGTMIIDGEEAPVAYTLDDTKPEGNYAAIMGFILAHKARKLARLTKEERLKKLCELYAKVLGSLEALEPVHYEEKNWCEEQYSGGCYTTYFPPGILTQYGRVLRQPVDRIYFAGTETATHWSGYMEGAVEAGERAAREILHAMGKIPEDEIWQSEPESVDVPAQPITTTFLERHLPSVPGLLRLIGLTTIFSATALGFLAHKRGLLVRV", "settings": "0.24 mM pargyline added as blank; 20 μM PEA, 37° C., 30 minutes; method from Zhou et al."}, "[2]": {"settings": "majority of the cited clinical studies of selegiline in ADHD"}},
  "data": [
    {"smiles": "CC(N)Cc1ccccc1", "note": "(stereo not drawn) [amphetamine]", "values": [
      {"measurement": "increase in the excretion of urinary phenylethylamine (PEA)", "setting": "[1]", "value": 1600, "unit": "%"}
    ]},
    {"smiles": "C#CCN(C)Cc1ccccc1", "note": "[pargyline]", "values": [
      {"measurement": "production of PAA (phenylacetic acid)", "setting": "Platelet MAO-B", "value": "no production of PAA"}
    ]},
    {"smiles": "C#CCN(C)[C@H](C)Cc1ccccc1.Cl", "note": "[selegiline]", "values": [
      {"measurement": "benefit to ADHD patients compared with psycho-stimulant treatment", "setting": "[2]", "value": "less benefit to the patients than psycho-stimulant treatment"}
    ]}
  ]
}
